Measured values from patent publication EP4559473A1, “PEPTIDE FOR THE TREATMENT OF DISEASES ASSOCIATED WITH APOLIPOPROTEIN AI OR TRANSTHYRETIN INVOLVEMENT” (Centro de Ingeniería Genética y Biotecnología, priority 2022, dated 2025).
Ends that are not written are not given here.

What was measured:
[1] = Treatment of patients with ischemic heart disease and high blood pressure; assay type: in vivo; details: six patients, 1 mg every 12 hours intravenously for seven days; clinical and imaging evaluation
Protocol: It is exemplified with the results of six patients. They presented ischemic heart disease, associated with high blood pressure, which produced a state of severity. They were treated in the Intermediate Care Unit (IMCU) of the "Luis Díaz Soto" hospital in Havana. These patients were treated with a pharmaceutical composition comprising the peptide identified as SEQ ID NO: 1, so that a peptide dose of 1 mg every 12 hours was administered intravenously for seven days. In addition, they received the standard therapy needed for these cases.
The treatment with this peptide was very safe, and verified by monitoring blood biochemistry parameters and differential blood count.

[2] = Treatment of patients with type II diabetes (diabetic decompensation); assay type: in vivo; details: five patients, 1 mg every 12 hours intravenously for eight days; clinical and imaging evaluation
Protocol: It is exemplified with ten patients who had diabetic decompensation and reached a state of severity, that let them to be treated in the ICU of the hospital "Luis Díaz Soto" in Havana. Five of these patients were treated with a pharmaceutical composition comprising the peptide identified as SEQ ID NO: 1, so that a peptide dose of 1 mg every 12 hours was administered intravenously for eight days. In addition, they received the standard therapy needed for these cases.
Treatment with this peptide was very safe and was verified by monitoring blood biochemistry parameters and differential blood count.

For “SIDLKDKYKNIGAKLVQLVANNTNEEA [peptide identified as SEQ ID NO: 1]”, the side effects [1] was “No side effects were observed” and the side effects [2] was “No side effects were observed”.
